Experiment: in vitro
Conditions: human, hela cells, % viability

Compound	viability at 28.5 h, 10 µM [%]	viability at 28.5 h, 10 µM (bulk resorufin, single well) [%]
CC(C)N1C(=O)[C@@H]2CN(C(=O)C3CCCC3)CCN2C1=O [CBK289612]	88.8	
COc1cccc2sc(NC(=O)CCCN(C)C)nc12 [CBK149261]	93	
CC(C)C(=O)Nc1cc2cccnc2c(-c2ccsc2)n1 [CBK081259]	100	
O=C1COc2ccccc2C/C=C/CC2(CCN(C(=O)c3cncc(O)c3)CC2)C(=O)NCCN1 [CBK291989]	98.3	
Cc1ccc2cc(CN(Cc3ccc(N(C)C)cc3)C(=O)NC3CCCCC3)c(=O)[nH]c2c1C [CBK132070]	97.3	
CCc1nc2ccc(C(=O)N3CCC(O)(Cc4ccccc4)CC3)cn2c1N(CC)C(=O)CCC1CCCC1 [CBK146854]	88.1	
COc1ccc(OC)c(NC(=O)CNC(=O)c2ccc(C)cc2)c1 [CBK268881]	91.5	
O=C(CCc1ccccc1)N1CCC(c2n[nH]c3ncccc23)CC1 [CBK284906]	94.3	
N#Cc1ccccc1CSc1nnc(-c2ccco2)n1-c1ccccc1 [CBK267270]	91.8	
O=C(NCc1ccc(-c2csnn2)cc1)c1cccc(C(F)(F)F)c1 [CBK149293]	87.2	
Cc1nn(Cc2ccc(C(=O)Nc3c(C)nn(Cc4ccc(Cl)c(Cl)c4)c3C)o2)c(C)c1Br [CBK265855]	83.5	
CCCNc1nccnc1-c1ccc(C(=O)N2CCN(C)CC2)cc1 [CBK036892]	110	
O=S(=O)(NCCNc1ncc(C(F)(F)F)cc1Cl)C(F)(F)F [CBK008366]	109	
O=C(O)c1ccc(CSc2nnc(Cc3ccccc3)[nH]2)o1 [CBK269208]	99.3	
COc1cc(NC(=O)c2ccc(-c3cc4ccccc4oc3=O)cc2)ccc1NC(=O)C(C)C [CBK268601]	103	
CN(CCN1CCCCC1)C(=O)c1c2c(nn1C)CCCC2 [CBK281905]	102	
Cn1nnnc1SCC(=O)Nc1cccc2nsnc12 [CBK268973]	101	
O=C(NCc1nc2ccccc2[nH]1)c1cc(Br)cnc1NCCOc1ccccc1 [CBK076220]	104	
CCCN1C[C@H](NC(=O)C2CC2)[C@@H](c2ccc(OC)cc2)C1 [CBK282518]	116	
Cc1ccc(C(=O)N2CN(C(=O)CN(C)CCN(C)C)CC2(C)C)cc1 [CBK091460C]	115	
O=C(NC1CCN(C(=O)Cn2ccc3ccncc32)CC1)C1CC1 [CBK284731]	98.9	
CN(C)c1ncc(-c2ccc(Cl)cc2)c(C2CCCN2C(=O)CN2CCCC2)n1 (centres unmarked) [CBK286037]	99.2	

Compound	viability at 28.5 h, 10 µM [%]	viability at 28.5 h, 10 µM (bulk resorufin, single well) [%]
O=C1CSC(Nc2nc(-c3ccccc3)cs2)=N1 [CBK026880]	104	
CCNC(=O)C1CCN(C(=O)c2coc(COc3cccc(F)c3)n2)C1 (centres unmarked) [CBK307466]	86.3	
COc1ccc2c3c([nH]c2c1)C(C)N(CCC(=O)NN)CC3 (centres unmarked) [CBK261726]	93.2	
O=C(Cc1ccsc1)N1C[C@@H]2CCCCN(CC3CC3)[C@@H]2C1 [CBK285507]	104	
CC(C)OC(=O)Cn1c(C2CCCNC2)cc2cccnc21 (centres unmarked) [CBK285058]	100	
COc1ccc(CCNC(=O)c2cnc3scc(C)n3c2=O)cc1 [CBK287291]	103	
CN(C)S(=O)(=O)N1CCN(Cc2ccccc2)CC1 [CBK263638]	109	
CO[C@@]12CC[C@@H](OCC(=O)O)C[C@@H]1N(Cc1ccccc1C)CC2 [CBK307548]	104	
CCOc1ccccc1CNCc1ccccn1 [CBK268041C]	103	
COc1ccc2[nH]cc(CCNC(=O)c3cc(C)[nH]n3)c2c1 [CBK116206]	89.8	
O=C(N/N=C/c1ccccc1O)c1cccc(C(=O)N/N=C/c2ccccc2O)n1 [CBK261459]	111	
Nc1nc2c(ccn2[C@H]2C[C@@H](O)[C@@H](CO)O2)c(=O)[nH]1 [CBK201238]	100	
Cc1ccc(CN(Cc2cncn2C)CC2CCCO2)o1 (centres unmarked) [CBK283272]	93.2	
Cc1ccc(-c2csc(NC(=O)c3ccc(S(=O)(=O)N4CCOCC4)cc3)n2)cc1 [CBK094024]	93.4	
CCC(C)N(C)CCNC(=O)Nc1ccc(F)c(-n2nnnc2C)c1 (centres unmarked) [CBK305176]	101	
O=C(O)CC(NCc1ccccc1)C(=O)Nc1cccc(F)c1 (centres unmarked) [CBK266956]	92.3	
COc1ccc(S(=O)(=O)N2CCN(Cc3ccc4c(c3)OCO4)CC2)c(Cl)c1Cl [CBK074433]	102	
COc1cc(NC(=O)c2cc([N+](=O)[O-])ccc2N2CCN(C)CC2)c2ncccc2c1 [CBK263034]	90	
Cc1nc(CCCn2cnc3nccnc3c2=O)sc1C [CBK306962]	103	
c1ccc2c(N3CCCCC3)cnnc2c1 [CBK066897]	99.2	
CN1CCN(NC(=O)C23CCC(C)(C(=O)O2)C3(C)C)CC1 (centres unmarked) [CBK268285]	99.1	
Cc1ccc(CSCCNS(=O)(=O)c2ccc3ccccc3c2)cc1 [CBK268048]	107	

Compound	viability at 28.5 h, 10 µM [%]	viability at 28.5 h, 10 µM (bulk resorufin, single well) [%]
Nc1nc(C2CC(N)C2)cc(N2CCC(Oc3ccccc3Cl)CC2)n1 (centres unmarked) [CBK307356]	88.6	
CCNC(=O)C1(NC(=O)c2cn3ccccc3n2)CCCCC1 [CBK305240]	102	
O=S(=O)(c1c(F)cccc1F)N1CCN(Cc2ccc3c(c2)OCO3)CC1 [CBK074600]	91.5	
COc1cc(CNC2CCCCC2)cc(I)c1OCC(N)=O [CBK269158C]	117	
O=C(CSc1ncccn1)Nc1sc2c(c1C(=O)Nc1ccccc1)CCCC2 [CBK265939]	93	
OCCNCc1cc(Br)ccc1OCc1ccc(F)cc1 [CBK266421C]	96	
O=C1CC(C(=O)Nc2cccc(C(=O)O)c2)C(c2ccccc2)O1 (centres unmarked) [CBK293968]	87.1	
C(=C\c1nccnc1OCCc1c[nH]c2ccccc12)/c1ccccc1 [CBK106872]	91.7	
CCC(C)(C)N1CC(=O)N=C1NCCc1ccc(S(N)(=O)=O)cc1 [CBK007750]	89.6	
COc1ncc(-c2nccnc2N2CCN(C)CC2)c(OC)n1 [CBK036595]	98.7	
COc1ccc(C(=O)N2C[C@@H](C)O[C@@H](C)C2)c(OC)n1 [CBK200231]	92.2	
COc1ccc(Nc2cc(Cl)ccc2C(=O)O)cn1 [CBK022801]	91.5	
Cc1nc2ccc(C(=O)O)cc2c2c1CC(CN)O2 (centres unmarked) [CBK286974]	97.7	
CC1CN(S(=O)(=O)c2ccc(NC(=O)c3nc(SCc4ccccc4)ncc3Cl)cc2)CC(C)O1 (centres unmarked) [CBK268930]	89.3	
Cn1cc(C(=O)NC2CCN(C(=O)c3ccc4c(c3)CCC4)CC2)cn1 [CBK305664]	97.8	
Cc1ccc(OCC(=O)NCC(c2cccs2)N2CCOCC2)cc1C (centres unmarked) [CBK306143]	93.3	
CC(C)(CC(=O)Nc1sc2c(c1C(=O)O)CCC2)CC(=O)Nc1sc2c(c1C(=O)O)CCC2 [CBK296100]	92.3	
O=C(CSc1ncnc2ccccc12)N(Cc1ccccc1F)C1CC1 [CBK295610]	92.1	
Cc1cccc(NC(=O)C(CC(=O)O)NCc2ccccc2)c1 (centres unmarked) [CBK266821]	87.3	
Cn1c2c(c(=O)[nH]c1=O)C1(O)C(=O)c3ccccc3C1(O)N2 (centres unmarked) [CBK261683]	105	
CC(/C(=N/O)c1ccccc1)C(O)c1ccccn1 (centres unmarked) [CBK022993]	83.3	
COc1ccc(C(C)C)cc1-c1cncc(NCc2ccc3c(c2)OCO3)n1 [CBK065348]	95.2	

Compound	viability at 28.5 h, 10 µM [%]	viability at 28.5 h, 10 µM (bulk resorufin, single well) [%]
Cc1cn(CC(=O)N2CCC3(CCN(C(=O)Cc4c[nH]c5ccccc45)C3)C2)c(=O)[nH]c1=O (centres unmarked) [CBK131445]	101	
Cc1cccc(N/C=C(/C#N)c2nc(-c3ccc4c(c3)OCO4)cs2)c1C [CBK263013]	96.4	
COc1cccc2c1OCC[C@@H]2Oc1cncc(N2CCNCC2)n1 [CBK172305G]	106	
CONc1nc(NC(C)(C)C)nc(OCC#N)n1 [CBK263655]	85.9	
OC1CCN(Cc2c([C@H]3CCCO3)[nH]c3ncccc23)CC1 [CBK286301]	110	
CSc1oc(-c2ccccc2)nc1C(N)=O [CBK067744]	98.4	
CCC(C)(C)c1ccc(S(=O)(=O)NCC2CC2)cc1 [CBK044994]	93	
CCOc1ccc(OCCC#N)cc1 [CBK015880]	84.7	
CCOc1cccc(-c2cncc(N3CCCC3CO)n2)c1 (centres unmarked) [CBK066004]	89.7	
Cn1cc(Nc2nc(-c3ccc(CCNS(C)(=O)=O)cc3)cs2)cn1 [CBK305065]	109	
CC(C)N1CCC(N(C)Cc2c[nH]nc2C(C)(C)C)CC1 [CBK283002]	92.9	
CC(=O)c1ccc(-c2nccnc2NCC(O)COc2ccccc2)s1 (centres unmarked) [CBK036976]	107	
O=C(COC(=O)C1CCN(S(=O)(=O)c2cccc3cccnc23)CC1)c1cccc([N+](=O)[O-])c1 [CBK264435]	97	
CNc1nc2c(ncn2C2CC(O)C(CO)O2)c(=O)[nH]1 (centres unmarked) [CBK201312]	100	
CC(=O)NCCc1ccc(S(=O)(=O)N2CCN(Cc3ccccc3)CC2)cc1 [CBK268458]	94.8	
COc1ccc(CC(=O)N2CCC(C#N)(c3ccccc3)CC2)c(OC)c1 [CBK091388]		91.4
CN1CCC(N2CCN(C(=O)NCc3cccnc3)CC2)CC1 [CBK155889]	89.2	
Cc1c(Cl)c(C(F)(F)F)nn1CCCNC(=S)Nc1ccc(S(N)(=O)=O)cc1 [CBK267113]	100	
Cc1noc(C)c1C(=O)N1CCC2(CC1)CC(=O)c1cc(Br)ccc1O2 [CBK156508]	90	
CCc1nnc(NS(=O)(=O)c2ccc(NC(=O)c3ccc([N+](=O)[O-])cc3)cc2)s1 [CBK045483]	95.4	
